Reference: US7736630B2, “Products for preventing penetration into the skin” (priority 2002, dated 2010)
Like-named read-outs stand apart in the source and are kept apart here.

Test: Skin permeation and skin accumulation in Franz diffusion cells
Type: in vitro ADME, nude mice (CD1)
Description: The permeation of pure OMC and Di(4-methoxycinnamoyl)jojobadiol (two —OH groups esterified) was measured by using dorsal skin of male, 7 weeks old, nude mice (CD1, Weizmann Institute, Israel).
The experiments were carried out for 24 hours at 37° C. in Franz diffusion cells. Samples of 200 μl were taken at 1, 2, 4, 6, 8 and 24 hours. 10 mg of each compound were applied on each skin (area—1.77 cm^2). The receiver compartment contained EtOH:H2O (1:1). At the end of the experiment the skin was cleaned and the skins were extracted with 10 ml EtOH. The amounts of the OMC and derivative Di(4-methoxycinnamoyl)jojobadiol were assayed by HPLC.

In the case of Di(4-methoxycinnamoyl)jojobadiol, the “amount accumulated in the skin at the end of experiment” value (10 mg on 1.77 cm^2 skin, 24 hours, 37° C., skin extracted with 10 ml EtOH, FIG. 7) is reported as 900 ± 359 µg, the “penetration/permeation across the skin (in words)” value (24 hours in vitro permeation, lowest detectable concentration of the derivative by HPLC 0.8 μg/ml, FIG. 6) is reported as “no penetration” and the “penetration/permeation across the skin (in words)” value (24 hours in vitro permeation, lowest detectable concentration of the derivative by HPLC 0.8 μg/ml, FIG. 6, listed as di(4-methoxy-cinnamoyl)jojobadiol) is reported as “does not”. For the same molecule, the “skin accumulation, OMC compared with Di(4-methoxycinnamoyl)jojobadiol” value (end of 24 hours experiment, FIG. 7) was “about third of the amount of the OMC”.
In the case of `CCCCC(CC)COC(=O)C=Cc1ccc(OC)cc1` (stereo not shown) [OMC, octylmethoxycinnamate, reference compound], the “penetration/permeation across the skin (in words)” value is reported as “permeates to the skin”, the “amount penetrated as % of the dose applied on the skin” value (male, CD1 nude, mouse, 24 h) is reported as 8.76% and the “amount which penetrated into the skin at the end of permeation experiment” value (male, CD1 nude, mouse, 24 h) is reported as 876 ± 235 µg.
